According to patent publication US20090111736A1, “Orally-Absorbed Solid Dose Formulation for Vancomycin” (SRI International, priority 2007, published 2009):
Where “and” joins values, the source holds several entries; their conditions need not be identical. Equal values may be shown once. Where a name gives a salt, the structure may show the parent alone.

Test system: rat jejunum
Test: In vitro mucosal-to-serosal vancomycin transport, modified Ussing chambers, jejunum
Assay type: in vitro ADME
Details: for Ave. Cumulative Amt VCM Released: jejunum
Source text: We investigated regional variation in permeation of vancomycin (VCM) across various segments of rat intestine and colon in vitro by mounting isolated segments of rat intestine and colon between horizontal modified Ussing chambers. The effects of drug concentration and of addition of a p-glycoprotein inhibitor or permeation enhancer(s) as formulation additives on VCM permeation were also studied in vitro using segments of rat jejunum.
Methods: A modified Ussing system (Easy mount Ussing system, Physiological Instruments Inc., CA, Item # EM-CSYS-8) with eight sets of chambers was used for all in vitro studies; each set consisted of two parallel diffusion chambers, a heating block for temperature control, needle valves for gas flow adjustment and gas mixing, and Ag/AgCl voltage and current electrodes for measuring transepithelial voltage and for passing current.
Harvesting of required small intestinal or colon segments of a male rat was performed using experimental procedures described in the literature (Gotoh et al., J Biomol Screen (2005) 10:517-23). The harvested segments of small intestine or colon were mounted on sliders placed between the two horizontal chambers of a modified Ussing system.
VCM was dissolved in HEPES buffer pH 7.4 (Table 1) previously saturated with 100% O2 or HEPES buffer containing additives selected from permeation enhancer(s) and/or an efflux transport inhibitor (Table 2) to obtain predetermined concentrations of drug and additive(s).
Drug transport across epithelial membranes of harvested rat small intestine and colon segments, in mucosal-to-serosal (M-to-S) direction, was studied using modified Ussing Chambers. Aliquots of HEPES buffer (5 ml) were initially added to both the mucosal and serosal chambers and allowed to equilibrate for 20 minutes. The HEPES buffer in the mucosal chamber was replaced by a study sample containing VCM alone or VCM and selected additive(s) in HEPES buffer, e.g., 5 mg/mL of VCM dissolved in HEPES buffer containing 10% w/w Labrasol®. Aliquots of 0.5 mL buffer solutions were removed periodically from serosal chambers, and replaced with equal volumes of fresh warm (37±2° C.) HEPES buffer previously saturated with 100% O2. […]
Changes in transepithelial short-circuit current (in micro-Amps) and membrane resistance (in Ohms) as a function of time were monitored continuously during in vitro studies to serve as indicators of tissue viability and drug permeability, respectively. The buffer samples from the receptor chambers were analyzed for VCM content on a high pressure liquid chromatograph (HPLC; Hewlett Packard Model 1100 series).
The analysis of VCM samples was performed using a reverse phase gradient HPLC method, with a Hypersil BDS C18 column, 5 μm, 150×4.6 mm., mobile phase consisting of 5 mM potassium phosphate monobasic in water (pH 3) as solvent A and acetonitrile as solvent B at a flow rate of 1 ml/min (Farin et al., J Pharm Biomed Anal (1998) 18:367-72). The eluant was monitored by a UV/diode array detector at 280 nm.
To compare data obtained from different in vitro experiments, the apparent permeability coefficients were calculated using the equation: […]
Where dQ/dt is the linear appearance rate of mass in receiver compartment, C0 is the initial solute concentration in donor compartment, and A is the surface area (Luo et al., Drug Metab Dispos (2002) 30:763-70).

In the case of `CN[C@H](CC(C)C)C(=O)N[C@H]1C(=O)N[C@@H](CC(N)=O)C(=O)N[C@H]2C(=O)N[C@H]3C(=O)N[C@H](C(=O)N[C@H](C(=O)O)c4cc(O)cc(O)c4-c4cc3ccc4O)[C@H](O)c3ccc(c(Cl)c3)Oc3cc2cc(c3O[C@@H]2O[C@H](CO)[C@@H](O)[C@H](O)[C@H]2O[C@H]2C[C@](C)(N)[C@H](O)[C@H](C)O2)Oc2ccc(cc2Cl)[C@H]1O` [Vancomycin hydrochloride], the “increase in M-to-S transport of VCM” value (0.15 mM Quinidine added to the serosal chamber) is reported as 3 fold, the “effect on M-to-S transport of VCM” value (0.15 mM Quinidine in mucosal chamber) is reported as “increased M-to-S transport of VCM, but to a lesser extent” and the “effect on in vitro permeation of VCM” value (1.0 mM sodium decanoate in mucosal chamber) is reported as “much greater effect”. For the same molecule, the “effect on in vitro permeation of VCM” value (1.0 mM sodium decanoate in serosal chamber) was “minimal effect”, the “effect on M-to-S transport of VCM” value (bile salts at 20% w/w in mucosal chamber) was “greatly enhanced M-to-S transport” and the “Ave. Cumulative Amt VCM Released” value (1.0 mM sodium decanoate in mucosal chamber, 0.5 hr) was 2.24 ± 3.17 µg. The “Ave. Cumulative Amt VCM Released” value (1.0 mM sodium decanoate in mucosal chamber, 1.0 hr) was 4.52 ± 6.39 µg, the “Ave. Cumulative Amt VCM Released” value (1.0 mM sodium decanoate in mucosal chamber, 1.5 hr) was 11.11 ± 10.44 µg and the “Ave. Cumulative Amt VCM Released” value (1.0 mM sodium decanoate in mucosal chamber, 2.0 hr) was 19.25 ± 14.42 µg. For the same molecule, the “Ave. Cumulative Amt VCM Released” value (1.0 mM sodium decanoate in mucosal chamber, 2.5 hr) was 34.10 ± 8.84 µg, the “Ave. Cumulative Amt VCM Released” value (1.0 mM sodium decanoate in serosal chamber, 0.5 hr) was 0.00 ± 0.00 µg and the “Ave. Cumulative Amt VCM Released” value (1.0 mM sodium decanoate in serosal chamber, 1.0 hr) was 0.91 ± 1.28 µg. The “Ave. Cumulative Amt VCM Released” value (1.0 mM sodium decanoate in serosal chamber, 1.5 hr) was 3.91 ± 0.70 µg, the “Ave. Cumulative Amt VCM Released” value (1.0 mM sodium decanoate in serosal chamber, 2.0 hr) was 6.91 ± 0.41 µg and the “Ave. Cumulative Amt VCM Released” value (1.0 mM sodium decanoate in serosal chamber, 2.5 hr) was 10.60 ± 0.28 µg. For the same molecule, the “Ave. Cumulative Amt VCM Released” value (5 mg/ml vancomycin in HEPES buffer without enhancer, 0.5 hr, hydrochloride) was 0.00 ± 0.00 µg and 0.00 ± 0.0 µg, the “Ave. Cumulative Amt VCM Released” value (5 mg/ml vancomycin in HEPES buffer without enhancer, 1.0 hr) was 1.06 ± 0.95 µg and the “Ave. Cumulative Amt VCM Released” value (5 mg/ml vancomycin in HEPES buffer without enhancer, 1.5 hr) was 3.73 ± 0.61 µg. For the same molecule, the “Ave. Cumulative Amt VCM Released” value (5 mg/ml vancomycin in HEPES buffer without enhancer, 2.0 hr) was 6.94 ± 1.07 µg, the “Ave. Cumulative Amt VCM Released” value (5 mg/ml vancomycin in HEPES buffer without enhancer, 2.5 hr) was 11.08 ± 1.08 µg and the “Ave. Cumulative Amt VCM Released” value (5 mg/ml, 0.15 mM Quinidine in mucosal chamber, 0.5 hr) was 0.00 ± 0.00 µg. The “Ave. Cumulative Amt VCM Released” value (5 mg/ml, 0.15 mM Quinidine in mucosal chamber, 1.0 hr) was 1.72 ± 2.44 µg, the “Ave. Cumulative Amt VCM Released” value (5 mg/ml, 0.15 mM Quinidine in mucosal chamber, 1.5 hr) was 4.91 ± 3.98 µg and the “Ave. Cumulative Amt VCM Released” value (5 mg/ml, 0.15 mM Quinidine in mucosal chamber, 2.0 hr) was 9.00 ± 5.72 µg. For the same molecule, the “Ave. Cumulative Amt VCM Released” value (5 mg/ml, 0.15 mM Quinidine in mucosal chamber, 2.5 hr) was 14.14 ± 6.95 µg, the “Ave. Cumulative Amt VCM Released” value (5 mg/ml, 0.15 mM Quinidine in serosal chamber, 0.5 hr) was 1.87 ± 0.57 µg and the “Ave. Cumulative Amt VCM Released” value (5 mg/ml, 0.15 mM Quinidine in serosal chamber, 1.0 hr) was 8.27 ± 3.06 µg. For the same molecule, the “Ave. Cumulative Amt VCM Released” value (5 mg/ml, 0.15 mM Quinidine in serosal chamber, 1.5 hr) was 16.77 ± 7.45 µg, the “Ave. Cumulative Amt VCM Released” value (5 mg/ml, 0.15 mM Quinidine in serosal chamber, 2.0 hr) was 26.75 ± 11.57 µg and the “Ave. Cumulative Amt VCM Released” value (5 mg/ml, 0.15 mM Quinidine in serosal chamber, 2.5 hr) was 38.96 ± 12.27 µg. For the same molecule, the “Ave. Cumulative Amt VCM Released” value (5 mg/ml, slider area 0.5 cm^2, 20% w/w bile salt, 0.5 hr) was 0.00 ± 0.00 µg, the “Ave. Cumulative Amt VCM Released” value (5 mg/ml, slider area 0.5 cm^2, 20% w/w bile salt, 1.0 hr) was 5.40 ± 2.26 µg and the “Ave. Cumulative Amt VCM Released” value (5 mg/ml, slider area 0.5 cm^2, 20% w/w bile salt, 1.5 hr) was 18.19 ± 7.43 µg. For the same molecule, the “Ave. Cumulative Amt VCM Released” value (5 mg/ml, slider area 0.5 cm^2, 20% w/w bile salt, 2.0 hr) was 37.58 ± 9.54 µg, the “Ave. Cumulative Amt VCM Released” value (5 mg/ml, slider area 0.5 cm^2, 20% w/w bile salt, 2.5 hr) was 66.39 ± 18.91 µg and the “Ave. Cumulative Amt VCM Released” value (5 mg/ml, slider area 0.5 cm^2, No Q (quinidine study), 0.5 hr) was 0.00 ± 0.00 µg. For the same molecule, the “Ave. Cumulative Amt VCM Released” value (5 mg/ml, slider area 0.5 cm^2, No Q (quinidine study), 1.0 hr) was 1.66 ± 0.43 µg, the “Ave. Cumulative Amt VCM Released” value (5 mg/ml, slider area 0.5 cm^2, No Q (quinidine study), 1.5 hr) was 4.34 ± 1.57 µg and the “Ave. Cumulative Amt VCM Released” value (5 mg/ml, slider area 0.5 cm^2, No Q (quinidine study), 2.0 hr) was 8.73 ± 2.92 µg. The “Ave. Cumulative Amt VCM Released” value (5 mg/ml, slider area 0.5 cm^2, No Q (quinidine study), 2.5 hr) was 14.24 ± 4.56 µg, the “Ave. Cumulative Amt VCM Released” value (10 mg/ml in HEPES buffer without enhancer, 0.5 hr) was 0.00 ± 0.0 µg and the “Ave. Cumulative Amt VCM Released” value (10 mg/ml in HEPES buffer without enhancer, 1.0 hr) was 2.76 ± 0.69 µg. The “Ave. Cumulative Amt VCM Released” value (10 mg/ml in HEPES buffer without enhancer, 1.5 hr) was 6.88 ± 0.98 µg, the “Ave. Cumulative Amt VCM Released” value (10 mg/ml in HEPES buffer without enhancer, 2.0 hr) was 12.86 ± 1.23 µg and the “Ave. Cumulative Amt VCM Released” value (10 mg/ml in HEPES buffer without enhancer, 2.5 hr) was 20.77 ± 1.90 µg. For the same molecule, the “Ave. Cumulative Amt VCM Released” value (25 mg/ml in HEPES buffer without enhancer, 0.5 hr) was 0.00 ± 0.0 µg, the “Ave. Cumulative Amt VCM Released” value (25 mg/ml in HEPES buffer without enhancer, 1.0 hr) was 2.90 ± 1.82 µg and the “Ave. Cumulative Amt VCM Released” value (25 mg/ml in HEPES buffer without enhancer, 1.5 hr) was 7.99 ± 5.71 µg. For the same molecule, the “Ave. Cumulative Amt VCM Released” value (25 mg/ml in HEPES buffer without enhancer, 2.0 hr) was 21.56 ± 3.84 µg and the “Ave. Cumulative Amt VCM Released” value (25 mg/ml in HEPES buffer without enhancer, 2.5 hr) was 50.91 ± 6.58 µg.
